Measurements taken from patent EP4729513A1, “A-KETO ACID AMIDE OR SUBSTITUTED OXALIC ACID AMIDE ESTER COMPOUND AND COMPOSITION THEREOF” (Nanjing Chempion Biotechnology Co., Ltd., priority 2023, dated 2025).

Target: T1, human TYR (Homo sapiens, UniProt P14679)
T1 sequence (P14679 19-529): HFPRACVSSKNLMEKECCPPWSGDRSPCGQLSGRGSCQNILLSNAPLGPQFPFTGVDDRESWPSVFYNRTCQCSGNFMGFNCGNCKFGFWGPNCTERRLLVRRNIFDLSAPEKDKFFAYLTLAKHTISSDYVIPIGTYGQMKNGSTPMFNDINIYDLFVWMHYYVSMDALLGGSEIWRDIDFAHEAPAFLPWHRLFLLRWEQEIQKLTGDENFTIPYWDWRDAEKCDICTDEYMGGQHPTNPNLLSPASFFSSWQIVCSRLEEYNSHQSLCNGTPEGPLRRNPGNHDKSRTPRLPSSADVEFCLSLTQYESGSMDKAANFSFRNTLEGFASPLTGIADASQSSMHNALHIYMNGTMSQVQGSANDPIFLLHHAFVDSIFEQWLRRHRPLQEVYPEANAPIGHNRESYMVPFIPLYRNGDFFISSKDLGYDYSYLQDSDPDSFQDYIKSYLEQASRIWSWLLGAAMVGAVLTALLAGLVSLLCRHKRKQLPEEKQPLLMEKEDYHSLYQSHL
Experiment: TYR inhibitory activity by modified MBTH (3-methyl-2-benzothiazolinone hydrazine) method
Type: biochemical
Settings: compound concentration 2 µg/mL; levodopa oxidized by human TYR, MBTH chromogenic reagent, absorbance at 505 nm
Description: A TYR inhibitory activity of a compound was assessed by a 3-methyl-2-benzothiazolinone hydrazine (MBTH) method modified with reference to the existing report (Journal of Biochemical and Biophysical Methods, 1994, 28 (3): 173-183). With MBTH as a chromogenic reagent, an inhibitory activity of a compound against human TYR was determined as follows: Levodopa was oxidized into L-dopaquinone by the human TYR. MBTH was then allowed to undergo a reaction with the L-dopaquinone to produce a colored product. The reaction was terminated, and the specific absorbance of the colored product at 505 nm was measured.

Going from `CC(=O)C(=O)Nc1nc(-c2ccc(O)cc2O)cs1` [N-(4-(2,4-dihydroxyphenyl)thiazol-2-yl)-2-oxopropanamide] to `COC(=O)C(=O)Nc1nc(-c2ccc(O)cc2O)cs1` [Methyl 2-((4-(2,4-dihydroxyphenyl)thiazol-2-yl)amino)-2-oxoacetate], the inhibition at 2 µg/mL falls from 92.6% to 88.1%.

Going from `CC(C)C(=O)C(=O)Nc1nc(-c2ccc(O)cc2O)cs1` [N-(4-(2,4-dihydroxyphenyl)thiazol-2-yl)-3-methyl-2-oxobutanamide] to `CC(C)NC(=O)C(=O)Nc1nc(-c2ccc(O)cc2O)cs1` [N-(4-(2,4-dihydroxyphenyl)thiazol-2-yl)-N'-isopropyloxalamide], the inhibition at 2 µg/mL rises from 78.5% to 96.7%.

Going from `O=C(Nc1nc(-c2ccc(O)cc2O)cs1)C(=O)OC1CC1` [Cyclopropyl 2-((4-(2,4-dihydroxyphenyl)thiazol-2-yl)amino)-2-oxoacetate] to `O=C(Nc1nc(-c2ccc(O)cc2O)cs1)C(=O)C1CC1` [2-cyclopropyl-N-(4-(2,4-dihydroxyphenyl)thiazol-2-yl)-2-oxoacetamide], the inhibition at 2 µg/mL falls from 85.8% to 75.3%.

First: CCC(=O)C(=O)Nc1nc(-c2ccc(O)cc2O)cs1 [N-(4-(2,4-dihydroxyphenyl)thiazol-2-yl)-2-oxobutanamide]
Second: CCOC(=O)C(=O)Nc1nc(-c2ccc(O)cc2O)cs1 [Ethyl 2-((4-(2,4-dihydroxyphenyl)thiazol-2-yl)amino)-2-oxoacetate]
The inhibition at 2 µg/mL of the first is higher: 90% for the first, 89.6% for the second.

Compared with `CN(C)C(=O)C(=O)Nc1nc(-c2ccc(O)cc2O)cs1` [N-(4-(2,4-dihydroxyphenyl)thiazol-2-yl)-N',N'-dimethyloxalamide], `CCN(CC)C(=O)C(=O)Nc1nc(-c2ccc(O)cc2O)cs1` [N-(4-(2,4-dihydroxyphenyl)thiazol-2-yl)-N',N'-diethyloxalamide] is lower in inhibition at 2 µg/mL: 90.7% for the first, 89.2% for the second.

Compared with `O=C(Nc1nc(-c2ccc(O)cc2O)cs1)C(=O)N1CCCC1` [N-(4-(2,4-Dihydroxyphenyl)thiazol-2-yl)-2-oxo-2-(pyrrolidin-1-yl)oxalamide], `O=C(Nc1nc(-c2ccc(O)cc2O)cs1)C(=O)N1CCOCC1` [N-(4-(2,4-dihydroxyphenyl)thiazol-2-yl)-2-morpholino-2-oxoacetamide] is lower in inhibition at 2 µg/mL: 93.5% for the first, 86.1% for the second.

First: O=C(Nc1nc(-c2ccc(O)cc2O)cs1)C(=O)C1CCCCC1 [2-cyclohexyl-N-(4-(2,4-dihydroxyphenyl)thiazol-2-yl)-2-oxoacetamide]
Second: O=C(Nc1nc(-c2ccc(O)cc2O)cs1)C(=O)N1CCSCC1 [N-(4-(2,4-dihydroxyphenyl)thiazol-2-yl)-2-thiomorpholin-2-oxoacetamide]
The inhibition at 2 µg/mL of the first is lower: 65% for the first, 76.5% for the second.
